According to patent US6958416B2, “Valproyltaurinamide derivatives as anticonvulsant amd CNS active agents” (Yissum Research Development Company of the Hebrew …, priority 2001, dated 2005):
Where two headings read alike, the source gives them in different places.

Columns and labels:
[1] = tested on: subcutaneous pentylenetetrazole induced convulsions (seizure threshold); assay: subcutaneous pentylenetetrazole test (s.c. Met); type: in vivo; settings: rats, table title: oral administration; for ED50: Rattus norvegicus, read-out: sc Met ED50
From the text: (§1) The first model the maximal electroshock seizure test (MES), is used to show efficacy for antiepileptic agents against partial and generalized seizure type epilepsy, the common epilepsy among therapy resistant epileptic patients. The second model, the subcutaneous pentylenetetrazole test (s.c. Met) which measures seizure threshold and is a standard screening procedure to show efficacy for agents against […] seizures. In these studies, convulsions were inhibited or prevented after oral (p.o.) and intraperitoneal (ip) administration of the compounds.

[2] = Neurotoxicity, Gait and Stance test
Experimental: Neurotoxicity of the agents was assessed in rats (p.o. and ip administration) in the Gait and Stance test and in mice in the Rotarod Ataxia test, which assess minimal neurotoxicity.

[3] = tested on: maximal electroshock seizure (MES); assay: maximal electroshock seizure test (MES); type: in vivo; settings: rats; for anticonvulsant activity in the MES test: result in words; for ED50: Rattus norvegicus
From the text: as §1

audiogenic seizures = audiogenic seizures in Frings audiogenic seizure susceptible mice; type: in vivo; settings: for potency compared with VPA in audiogenic seizure model: in words
Experimental: In mice the compounds were tested for their ability to protect against audiogenic seizures in the Frings audiogenic seizure susceptible mice after ip administration. This model is considered as a good screening model in pharmacologic studies for CNS active compounds.

[4] = Pharmacokinetics in mongrel dogs; type: in vivo
Experimental: The pharmacokinetics of Compound A were evaluated in mongrel dogs.

6 Hz psychomotor seizure = 6 Hz psychomotor seizure model; type: in vivo; settings: Mus musculus; mice ip, stimulation intensity 22 mA
[5] = po, p.o. administration, read-out: MES ED50 (mg/kg po)

Question: With `CCCC(CCC)C(=O)NCCS(=O)(=O)N(C)C` [B, N-(2-Propylpentanoyl)taurine-N′,N′-dimethylamide] as the compound, how does the “sc Met ED50” value [1] read?
Answer: The value was greater than 200 mg/kg.

Question: What about the “Neurotoxicity TD50 (mg/kg ip)” value ([2]; rats, ip administration) of the same compound?
Answer: Its value is 175 mg/kg.

Question: What about the “TD50 compared with VPA” value ([2]; rats, in words) of the same compound?
Answer: The value was “significantly higher than TD50 for VPA”.

Question: And the “MES ED50 (mg/kg ip)” value ([3]; ip administration)?
Answer: The value was 50 mg/kg.

Question: And the “MES ED50 (mg/kg po)” value ([3]; p.o. administration)?
Answer: The value was greater than 160 mg/kg.

Question: What about the “anticonvulsant activity in the MES test” value [3] of the same compound?
Answer: Its value is “showed anticonvulsant activity”.

Question: What about the “Audiogenic seizures ED50” value (audiogenic seizures; ip administration) of the same compound?
Answer: Its value is 134 mg/kg.

Question: What about the “potency compared with VPA in audiogenic seizure model” value (audiogenic seizures; ip) of the same compound?
Answer: Its value is “more potent than VPA”.

Question: For `CCCC(CCC)C(=O)NCCS(=O)(=O)NC(C)C` [C, N-(2-Propylpentanoyl)taurine-N′-isopropylamide], which “sc Met ED50” value [1] is on record?
Answer: Its value is greater than 250 mg/kg.

Question: And the “Neurotoxicity TD50 (mg/kg ip)” value ([2]; rats, ip administration)?
Answer: The value was 627 mg/kg.

Question: And the “TD50 compared with VPA” value ([2]; rats, in words)?
Answer: The value was “significantly higher than TD50 for VPA”.

Question: And the “MES ED50 (mg/kg ip)” value ([3]; ip administration)?
Answer: The value was 52 mg/kg.

Question: And the “MES ED50 (mg/kg po)” value ([3]; p.o. administration)?
Answer: Its value is 63 mg/kg.

Question: And the “anticonvulsant activity in the MES test” value [3]?
Answer: The value was “showed anticonvulsant activity”.

Question: And the “Audiogenic seizures ED50” value (audiogenic seizures; ip administration)?
Answer: The value was 126 mg/kg.

Question: And the “potency compared with VPA in audiogenic seizure model” value (audiogenic seizures; ip)?
Answer: Its value is “more potent than VPA”.

Question: Which ED50 [1] does the source give for `CCCC(CCC)C(=O)NCCS(N)(=O)=O` [Compound A, N-(2-Propylpentanoyl)taurinamide] here?
Answer: Its ED50 is greater than 250 mg/kg.

Question: What about the “TD50 compared with VPA” value ([2]; rat, in vivo) of the same compound?
Answer: Its value is “significantly higher than TD50 for VPA”.

Question: What about the “Neurotoxicity TD50 (mg/kg ip)” value ([2]; rat, in vivo, ip) of the same compound?
Answer: Its value is greater than 300 mg/kg.

Question: And the TD50 ([2]; rat, in vivo, ip)?
Answer: Its TD50 is greater than 300 mg/kg.

Question: What about the “Neurotoxicity TD50 (mg/kg po)” value ([2]; rat, in vivo, po) of the same compound?
Answer: Its value is greater than 500 mg/kg.

Question: And the TD50 ([2]; rat, in vivo, po)?
Answer: Its TD50 is greater than 500 mg/kg.

Question: What about the ED50 [3, 5] of the same compound?
Answer: Its ED50 is 65 mg/kg.

Question: What about the ED50 ([3]; ip administration, read-out: MES ED50 (mg/kg ip)) of the same compound?
Answer: The ED50 was 50 mg/kg.

Question: And the “anticonvulsant activity in the MES test” value [3]?
Answer: The value was “showed anticonvulsant activity”.

Question: What about the half-life ([4]; dog, in vivo) of the same compound?
Answer: The half-life was 5.6 h.

Question: And the Vd ([4]; dog, in vivo, read-out: Volume of distribution at steady state (Vss))?
Answer: The Vd was 0.84 L/kg.

Question: What about the clearance ([4]; dog, in vivo, read-out: total body clearance (CL) (converted)) of the same compound?
Answer: The clearance was 1.83 mL/min/kg.

Question: What about the liver extraction ratio ([4]; in words) of the same compound?
Answer: Its liver extraction ratio is “low”.

Question: What about the ED50 (audiogenic seizures; Mus musculus, ip, ip administration) of the same compound?
Answer: The ED50 was 50 to 140 mg/kg.

Question: What about the “Audiogenic seizures ED50” value (audiogenic seizures; ip administration) of the same compound?
Answer: The value was 51 mg/kg.

Question: And the “audiogenic seizure ED50 compared with VPA” value (audiogenic seizures; ip, relative to VPA)?
Answer: The value was 3 times lower.

Question: What about the ED50 (6 Hz psychomotor seizure) of the same compound?
Answer: The ED50 was 188 mg/kg.

Question: For `CCCC(CCC)C(=O)NCCS(=O)(=O)N(CC)CC` [N-(2-n-propylpentanoyl)taurine-N′,N′-diethylamide], which “anticonvulsant activity in the MES test” value [3] is on record?
Answer: Its value is “showed anticonvulsant activity”.

Question: With `CCCC(CCC)C(=O)NCCS(=O)(=O)NCC` [N-(2-n-propylpentanoyl)taurine-N′-ethylamide] as the compound, how does the “anticonvulsant activity in the MES test” value [3] read?
Answer: The value was “showed anticonvulsant activity”.

Question: With `CCCC(CCC)C(=O)NCCS(=O)(=O)NC` [N-(2-n-propylpentanoyl)taurine-N′-methylamide] as the compound, how does the “anticonvulsant activity in the MES test” value [3] read?
Answer: The value was “showed anticonvulsant activity”.

Question: What does the source list for `CCCC(CCC)C(=O)O` [VPA, valproic acid, reference compound]?
Answer: ED50 [1]: 180 mg/kg; TD50 ([2]; rat, in vivo, po): 200 mg/kg; ED50 [3, 5]: 490 mg/kg
